According to ChEMBL document CHEMBL2434955, “Potent inhibition of norovirus by dipeptidyl α-hydroxyphosphonate transition state mimics” (Bioorg Med Chem Lett, 2013):

What was measured:
Norovirus = test: Antiviral activity against Norovirus in cell-based replicon system
[1] = system: Norovirus 3CL protease (Norovirus); test: Inhibition of Norovirus 3CL protease by FRET assay
Trypsin (Homo sapiens) = Trypsin (Homo sapiens) (UniProt P07477+P07478+P35030); test: Inhibition of trypsin (unknown origin) at 125 uM after 30 mins; assay type: protein assay
Homo sapiens [2] = species: Homo sapiens; test: Inhibition of human neutrophil elastase at 17.5 uM after 30 mins
Homo sapiens [3] = species: Homo sapiens; test: Inhibition of alpha-chymotrypsin (unknown origin) at 2.5 uM after 30 mins
[4] = target: Prothrombin (Homo sapiens) (UniProt P00734); test: Inhibition of thrombin (unknown origin) at 2.75 uM after 30 mins
[5] = target: T1, Carboxypeptidase A1 (Homo sapiens) (UniProt P15085); test: Inhibition of carboxypeptidase A (unknown origin) at 43 uM after 30 mins
T1 sequence (whole entry): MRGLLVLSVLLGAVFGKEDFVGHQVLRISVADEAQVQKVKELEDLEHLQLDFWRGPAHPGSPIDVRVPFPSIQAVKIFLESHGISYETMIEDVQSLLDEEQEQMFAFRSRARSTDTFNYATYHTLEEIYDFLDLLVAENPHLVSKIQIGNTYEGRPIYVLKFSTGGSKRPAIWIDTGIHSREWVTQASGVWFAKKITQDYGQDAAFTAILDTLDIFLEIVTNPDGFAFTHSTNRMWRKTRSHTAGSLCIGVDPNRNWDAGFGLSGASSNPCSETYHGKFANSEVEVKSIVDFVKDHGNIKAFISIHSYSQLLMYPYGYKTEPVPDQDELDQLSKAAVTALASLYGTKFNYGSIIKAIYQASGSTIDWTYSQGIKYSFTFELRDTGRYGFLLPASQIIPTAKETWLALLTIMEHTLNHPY

## O=C(N[C@@H](CC1CCCCC1)C(=O)N[C@@H](CC1CCNC1=O)C(O)P(=O)(OCc1ccccc1)OCc1ccccc1)OCc1ccccc1 (mixture of isomers)
Norovirus
  EC50: 0.6 µM

## CCOP(=O)(OCC)C(O)[C@H](CC1CCNC1=O)NC(=O)[C@H](CC(C)C)NC(=O)OCc1ccccc1 (mixture of isomers)
[1]
  IC50: 11.5 µM
Norovirus
  EC50: 0.8 µM

## COP(=O)(OC)C(O)[C@H](CC1CCNC1=O)NC(=O)[C@H](CC(C)C)NC(=O)OCc1ccccc1 (mixture of isomers)
[1]
  IC50: 20.2 µM
Norovirus
  EC50: 3.5 µM

## CC(C)C[C@H](NC(=O)OCc1ccccc1)C(=O)N[C@@H](CC1CCNC1=O)C(O)P(=O)(O)O (mixture of isomers)
Norovirus
  EC50: 7.5 µM

## CCOP(=O)(OCC)C(O)[C@H](CC1CCNC1=O)NC(=O)[C@H](CC1CCCCC1)NC(=O)OCc1ccccc1 (mixture of isomers)
Trypsin (Homo sapiens)
  inhibition: 0%
Homo sapiens [2]
  inhibition: 15%
Homo sapiens [3]
  inhibition: 0%
[1]
  IC50: 3.5 µM
[4]
  inhibition: 0%
Norovirus
  EC50: 0.25 µM
[5]
  inhibition: 0%

## COP(=O)(OC)C(O)[C@H](CC1CCNC1=O)NC(=O)[C@H](CC1CCCCC1)NC(=O)OCc1ccccc1 (mixture of isomers)
[1]
  IC50: 8.3 µM
Norovirus
  EC50: 2.8 µM

## CCCCOP(=O)(OCCCC)C(O)[C@H](CC1CCNC1=O)NC(=O)[C@H](CC1CCCCC1)NC(=O)OCc1ccccc1 (mixture of isomers)
Norovirus
  EC50: 0.5 µM

## O=C(N[C@@H](CC1CCCCC1)C(=O)N[C@@H](CC1CCNC1=O)C(O)P(=O)(OCC(F)(F)F)OCC(F)(F)F)OCc1ccccc1 (mixture of isomers)
[1]
  IC50: 6.5 µM
Norovirus
  EC50: 0.35 µM
